Here are results for 1 compound from paper PMC9853328, “Potent Platinum(IV) Prodrugs That Incorporate a Biotin Moiety to Selectively Target Cancer Cells” (Pharmaceutics, 2022).

The test system of data set [1] is BE2-C neuroblastoma cells. The data set can be described thus: MTT in vitro cytotoxicity assay, BE2-C. The format is cell-based. As to conditions: 72 h drug exposure, n = 3, read-out: GI50 ± SEM, BE2-C. How it is done:
(§1) The in vitro cytotoxicity assays were undertaken at Calvary Mater Hospital, Waratah, NSW, Australia, following a method previously published in the literature. A stock solution for each compound was prepared in DMSO (30 mM) and stored at −20 °C. The cell lines used in the study include HT29 colon, U87 glioblastoma, MCF-7 breast, A2780 ovarian, H460 lung, A431 skin, Du145 prostate, BE2-C neuroblastoma, SJ-G2 glioblastoma, MIA pancreas, and cisplatin-resistant ADDP ovarian (subclone of A2780) cancer cells, as well as the non-cancerous-derived MCF10A breast cell line. The cancer cell lines were cultured in a humidified atmosphere 5% CO2 at 37 °C and maintained in Dulbecco’s modified Eagle’s medium (Trace Biosciences, Sydney, Australia), supplemented with 10% foetal bovine serum, sodium bicarbonate (10 mM), penicillin (100 IU/mL), streptomycin (100 µg/mL), and glutamine (4 mM). The non-cancerous MCF10A cell line was maintained in DMEM:F12 (1:1) cell culture media, with 5% heat inactivated horse serum, supplemented with penicillin (50 IU/mL), streptomycin (50 µg/mL), glutamine (2 mM), HEPES (20 mM), epidermal growth factor (20 ng/mL), hydrocortisone (500 ng/mL), cholera toxin (100 ng/mL), and insulin (10 µg/mL). Cells were plated in duplicate in medium (100 µL) at a density of 2500–4000 cells per well in 96-well plates. On day 0, (24 h after plating) when the cells were in logarithmic growth, medium (100 μL) with or without the test agent was added to each well. The growth inhibitory effects were evaluated after 72 h drug exposure, using the MTT (3-(4,5-dimethylthiazol-2-yl)-2,5-diphenyltetrazolium bromide) assay, with the absorbance read at 540 nm. An eight-point dose–response curve was produced, which was used to determine the concentration at which growth was inhibited by 50% (GI50). This calculation was based on the difference between the optical density values on day 0 and those at the end of drug exposure. […] Experiments were conducted on three separate occasions and GI50 values were reported as the mean and standard error of the mean.

In data set [2] the test system is cisplatin-resistant ADDP ovarian (subclone of A2780) cancer cells. The data set can be described thus: MTT in vitro cytotoxicity assay, ADDP. The format is cell-based. The following applies: 72 h drug exposure, n = 3, read-out: GI50 ± SEM, ADDP. The method, then:
as §1

Data set [3] is described as follows: Lipophilicity by RP-HPLC (logkw). The following applies: capacity factor in 100% water. The format is physicochemical. How it is done: HPLC experiments were carried out using an Agilent Technologies (Melbourne, Australia) 1260 Infinity instrument, equipped with a Phenomenex (Sydney, Australia) Onyx^TM Monolithic C18 reverse phase column (100 × 4.6 mm, 130 Å). The mobile phase was made up of 0.06% TFA in water (solvent A) and 0.06% TFA in an acetonitrile:water (9:1) mixture (solvent B). Samples were eluted over a gradient of 0–100% (% B) for 15 min, at a flow rate of 1 mL/min, with a sample injection volume of 10 µL. Eluting peaks were detected using a PDA at 254 nm.
For lipophilicity experiments, RP-HPLC was utilised to determine the logkw of each compound, similarly to what has been previously published for similar complexes. Samples were eluted at various isocratic percentages, ranging from 18–30% solvent B. To determine the dead volume of the column, potassium iodide was used as an external dead volume marker. The retention time of each sample in each isocratic run ( tr ) and the dead volume time ( t0 ) were both substituted in Equation (1) to calculate the capacity factor ( k ). (1) k=tr−t0/t0
Following this, logk was plotted against the percentage of ACN. For each complex, a minimum of four concentrations of ACN were used. This produced a linear graph with the equation in the form:(2) logk=Sφ+logkw where S is the slope, φ is the percentage of ACN, and logkw is the y-intercept, which represents the capacity factor of the compound in 100% water.
It is important to explore the lipophilicity of a drug, as it is widely believed that increased lipophilicity results in greater cellular accumulation. To understand the lipophilicity of 1–4, RP-HPLC was utilised to determine the logkw of each complex. To calculate this, each complex was eluted at different isocratic percentages, whereby the retention time was used in Equation (1) to calculate the capacity factor (k). The percentage of the organic solvent was then plotted against log k for each isocratic percentage, producing a linear equation that allowed for logkw to be deduced using Equation (2) (Figure S38). The logkw value represents the capacity factor of the compound in 100% water and can be used to compare a series of compounds. Since 1–4 comprise the same axially bound ligand, biotin, the lipophilicity was influenced by the groups on the PL. The logkw of each complex is presented in Table 1, with their corresponding PL. The increasing lipophilicity of the complexes followed the order: 1 < 4 < 2 < 3.

A further data set concerns H460 lung cancer cells. The data set is described as follows: MTT in vitro cytotoxicity assay, H460. The data set is classed as cell-based. As to conditions: 72 h drug exposure, n = 3, read-out: GI50 ± SEM, H460. How it is done:
as §1

The next data set deals with HT29 colon cancer cells. The data set is described as follows: MTT in vitro cytotoxicity assay, HT29. The data set is classed as cell-based. How it is done:
as §1

For data set [4], the system named is panel of cancer cell lines. The data set can be described thus: MTT cytotoxicity averaged across the panel of cancer cell lines. The data set is classed as cell-based.
In data set [5] the test system is A2780 ovarian cancer cells. The data set is described as follows: MTT in vitro cytotoxicity assay, A2780. The data set is classed as cell-based. As to conditions: 72 h drug exposure, n = 3, read-out: GI50 ± SEM, A2780. How it is done: as §1
Data set [6] concerns non-cancerous MCF10A breast cell line. The data set can be described thus: MTT in vitro cytotoxicity assay, MCF10A. The data set is classed as cell-based. The following applies: 72 h drug exposure, n = 3, read-out: GI50 ± SEM, MCF10A. How it is done: as §1
Data set [7] concerns Du145 prostate cancer cells. The data set can be described thus: MTT in vitro cytotoxicity assay, Du145. The data set is classed as cell-based. How it is done: as §1
The test system of data set [8] is ADDP (subclone of A2780) versus A2780 ovarian cancer cell lines. The data set is described as follows: Resistance factor, GI50 in ADDP/GI50 in A2780. The format is cell-based.

Each structure is given as a SMILES string. “And” between values parts separate entries of the source, which are not always exact repeats. Identical values can stand only once.

For `COc1cc[n+]2c3c1ccc1c(OC)cc[n+](c13)[Pt-2]21([OH])([O]C(=O)CCCC[C@@H]2SC[C@@H]3NC(=O)N[C@@H]32)[NH2+][C@H]2CCCC[C@@H]2[NH2+]1.O=[N+]([O-])[O-].O=[N+]([O-])[O-]` [Complex 3, [Pt(4,7-dimethoxy-1,10-phenanthroline)(1S,2S-diaminocyclohexane)(biotin)(hydroxido)](NO3)2], the GI50 in [1] was 2000 ± 70 nM; in data set [2] it was 170 ± 20 nM; in the data set with H460 lung cancer cells it was 270 ± 30 nM; in the data set with HT29 colon cancer cells (MTT, 72 h drug exposure, n = 3, read-out: GI50 ± SEM, HT29), 130 ± 50 nM; in [4] (calculated from the panel of cancer cell lines tested (Table S4)), 459 nM; in data set [5], 370 ± 30 nM. The GI50 in [6] came out at 300 ± 80 nM; in data set [7] (MTT, 72 h drug exposure, n = 3, read-out: GI50 ± SEM, Du145), 120 ± 40 nM. Further, the logkw in data set [3] is reported as 0.96. The “number-fold potency against cisplatin, HT29 colon” value with HT29 colon cancer cells (ratio of GI50 values, 72 h) worked out at 87 fold. The “enhanced activity compared to platinum(II) precursor across the cancer cell lines” value in data set [4] (across all cancer cell lines) is on record as ~ 1.3 fold. In addition, in data set [4] (average over cancer cell lines), the “fold more active than cisplatin, on average, against all cancer cells” value is on record as 8 fold. The “number-fold potency against cisplatin, Du145 prostate” value in data set [7] (ratio of GI50 values, 72 h) is 10 fold. Moreover, the “Resistance factor (RF)” value in data set [8] is 0.459 and 0.46.

The GI50 is the concentration at which growth is held to half of that of the control.
